Experimental data reported in ChEMBL document CHEMBL5537136 (J Med Chem, 2024).

Experiments:
[1] = biological target: T1, Protein mono-ADP-ribosyltransferase PARP12 (Homo sapiens, UniProt Q9H0J9); experiment: Inhibition of PARP12 (unknown origin) measured after 1 hr incubation by microplate reader assay
T1 sequence (Q9H0J9 whole entry): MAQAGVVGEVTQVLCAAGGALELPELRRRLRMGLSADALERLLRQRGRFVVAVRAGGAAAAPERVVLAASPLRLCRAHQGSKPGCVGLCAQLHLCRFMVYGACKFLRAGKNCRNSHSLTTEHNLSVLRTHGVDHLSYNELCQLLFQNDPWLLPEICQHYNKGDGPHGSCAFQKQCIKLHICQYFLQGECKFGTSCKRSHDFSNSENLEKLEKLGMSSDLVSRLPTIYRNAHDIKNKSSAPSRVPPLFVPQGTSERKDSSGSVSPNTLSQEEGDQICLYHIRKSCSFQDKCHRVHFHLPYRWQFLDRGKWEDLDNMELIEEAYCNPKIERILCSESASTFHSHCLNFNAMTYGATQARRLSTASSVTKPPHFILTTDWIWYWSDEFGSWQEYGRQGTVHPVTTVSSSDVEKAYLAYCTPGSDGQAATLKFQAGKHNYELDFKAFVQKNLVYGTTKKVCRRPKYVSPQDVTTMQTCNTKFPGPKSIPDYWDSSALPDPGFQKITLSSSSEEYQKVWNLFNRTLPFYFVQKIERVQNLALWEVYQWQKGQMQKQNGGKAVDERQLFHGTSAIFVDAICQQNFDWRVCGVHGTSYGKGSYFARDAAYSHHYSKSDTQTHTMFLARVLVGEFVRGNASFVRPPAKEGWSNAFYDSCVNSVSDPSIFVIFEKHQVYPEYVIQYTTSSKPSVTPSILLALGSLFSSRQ

CT26 [2] = experiment: Induction of anti-tumor immunity in mouse CT26 cells assessed as increase in IFN-beta mRNA expression incubated for 2 days by quantitative real-time PCR analysis; format: functional, cell-based; conditions: dose 0.04-0.44 µM, time 2.0 day
[3] = biological target: T2, Protein mono-ADP-ribosyltransferase TIPARP (Mus musculus) (UniProt Q8C1B2); experiment: Inhibition of PARP7 in mouse CT26 cells assessed as increase in TBK1 phosphorylation incubated for 3 days by Western blot analysis; format: cell-based; conditions: dose 0.14-4 µM, time 3.0 day
T2 sequence (whole entry): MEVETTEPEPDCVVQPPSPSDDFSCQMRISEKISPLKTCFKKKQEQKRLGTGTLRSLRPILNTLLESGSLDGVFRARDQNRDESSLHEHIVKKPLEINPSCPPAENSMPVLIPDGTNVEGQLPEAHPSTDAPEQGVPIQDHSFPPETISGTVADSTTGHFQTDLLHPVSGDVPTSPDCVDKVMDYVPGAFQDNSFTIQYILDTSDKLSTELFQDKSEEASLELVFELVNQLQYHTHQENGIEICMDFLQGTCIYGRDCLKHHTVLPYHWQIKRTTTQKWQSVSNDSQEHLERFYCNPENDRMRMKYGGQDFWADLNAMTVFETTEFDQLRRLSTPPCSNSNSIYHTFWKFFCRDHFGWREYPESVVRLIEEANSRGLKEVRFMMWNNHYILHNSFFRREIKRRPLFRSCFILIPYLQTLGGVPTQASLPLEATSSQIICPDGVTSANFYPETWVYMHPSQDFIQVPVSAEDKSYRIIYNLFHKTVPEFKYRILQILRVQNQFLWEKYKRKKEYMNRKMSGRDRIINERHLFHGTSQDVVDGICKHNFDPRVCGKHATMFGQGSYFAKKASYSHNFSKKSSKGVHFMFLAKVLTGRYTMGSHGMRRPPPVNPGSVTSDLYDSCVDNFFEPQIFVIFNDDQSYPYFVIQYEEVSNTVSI

[4] = biological target: T2, Protein mono-ADP-ribosyltransferase TIPARP (Mus musculus); experiment: Inhibition of PARP7 in mouse CT26 cells assessed as increase in STAT1 phosphorylation incubated for 3 days by Western blot analysis; format: cell-based; conditions: dose 0.14-4 µM, time 3.0 day
[5] = Half life in ICR mouse at 1 mg/kg, iv measured upto 24 hrs by LC-MS/MS analysis; format: ADME, organism-based; conditions: in vivo
[6] = C0 in ICR mouse at 1 mg/kg, iv measured upto 24 hrs by LC-MS/MS analysis; format: ADME, organism-based; conditions: in vivo
[7] = Tmax in ICR mouse at 10 mg/kg, IG measured upto 24 hrs by LC-MS/MS analysis; format: ADME, organism-based; conditions: in vivo, po
[8] = Acute toxicity in ICR mouse assessed as change in body weight at 1000 mg/kg, po measured after 7 days; format: organism-based; conditions: in vivo, 168 h, time 7 day
CT26 [9] = experiment: Antitumor activity in immunocompetent mouse CT26 cell bearing mouse model assessed as tumor growth inhibition at 25 mg/kg, IG treated twice a day measured after 14 days relative to control; format: functional; conditions: CT26, po, 336 h, time 14 day, read-out: TGI
[10] = Toxicity in Balb/c mouse bearing mouse CT26 cells assessed as morphological changes in liver at 6.25 to 25 mg/kg, IG measured after 14 days by hematoxylin and eosin staining based assay; format: organism-based; conditions: in vivo, po, 336 h, dose 6.25-25 mg/kg, time 14 day
CT26 [11] = experiment: Antitumor activity in immunocompetent mouse CT26 cell bearing Balb/c mouse model assessed as induction of IFN-beta mRNA expression in tumor tissue treated IG twice a day measured after 14 days by quantitative real-time PCR analysis; format: functional; conditions: dose lower 6.25 mg/kg, dose upper […], time 14.0 day

SMILES: C[C@@H](C(=O)N1CCN(c2ncc(C(F)(F)F)cn2)CC1)n1cc2cccc(C(N)=O)c2n1
- IC50 [1]: 664 nM
- Activity (CT26 [2]): Dose-Dependent Effect
- inhibition [3]: Dose-Dependent Effect
- inhibition [4]: Dose-Dependent Effect
- half-life [5]: 73.2 min
- C0 at 24 h [6]: 1590 ng/mL
- Tmax [7]: 30 min
- Activity [8]: Non-Toxic
- inhibition in vivo at 25 mg/kg (CT26 [9]): 83%
- Activity [10]: Non-Toxic
- Activity (CT26 [11]): Dose-Dependent Effect
